Reference: patent US11685747B2, “Compounds that inhibit MCL-1 protein” (AMGEN INC., priority 2014, dated 2023)

Experiments:
recombinant human Mcl-1 = target: T1, recombinant human Mcl-1 (Homo sapiens, UniProt Q07820); experiment: Cell free Mcl-1:Bim affinity assay (Mcl-1 HTRF, TR-FRET); assay type: binding; conditions: inhibition of Mcl-1/Bim interaction
T1 construct: C-terminally 6×His tagged Mcl-1 containing residues 171-327; made in house
Description: Cell Free Mcl-1:Bim Affinity Assay (Mcl-1 HTRF)
The inhibition of the Mcl-1/Bim interaction was measured using a time-resolved fluorescence resonance energy transfer (TR-FRET) assay. […] A biotinylated peptide derived from human Bim (residues 51-76) was purchased from CPC Scientific (San Jose, Calif.). The TR-FRET assay was conducted in a 384-well white OptiPlate™ (PerkinElmer, Waltham, Mass.) in a total volume of 40 μL. […] The reaction plates were further incubated overnight and then were read on an Envision® multimode reader (PerkinElmer). […] The IC50 values of test compounds were determined from duplicate data by analyzing competition curves using a four-parameter sigmoidal model in GraphPad Prism (GraphPad Software, San Diego, Calif.) or in Genedata Screener® (Genedata, Basel, Switzerland).

[1] = target: T2, Mcl-1/Bak protein-protein interactions (Homo sapiens, UniProt Q07820); experiment: Cell-based split luciferase complementation assay; conditions: HEK 293 M cells, serum-free, 4 h
T2 construct: expressed in transfected cells; host or cells: HEK 293 M cells, transient transfection
T2 sequence (Q07820 whole entry): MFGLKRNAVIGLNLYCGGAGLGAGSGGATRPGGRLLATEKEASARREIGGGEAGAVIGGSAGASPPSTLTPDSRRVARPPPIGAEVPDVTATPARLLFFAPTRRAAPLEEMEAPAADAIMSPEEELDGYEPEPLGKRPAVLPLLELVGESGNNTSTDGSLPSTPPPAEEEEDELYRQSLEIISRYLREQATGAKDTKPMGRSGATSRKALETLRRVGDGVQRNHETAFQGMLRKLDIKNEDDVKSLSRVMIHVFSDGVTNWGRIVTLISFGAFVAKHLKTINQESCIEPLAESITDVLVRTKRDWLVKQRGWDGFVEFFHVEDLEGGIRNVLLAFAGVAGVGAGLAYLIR
Description: Cell-Based Assay (Split Luciferase)
A split luciferase complementation assay was developed to determine the inhibition of Mcl-1/Bak protein-protein interactions in cells. […] Transient transfection was performed using Lipofectamine® LTX/Plus™ reagent (Life Technologies, Grand Island, N.Y.). 24 h after transfection, cells were collected using non-enzyme based cell dissociation buffer StemPro® Accutase® (Life Technologies), and resuspended in serum-free Opti-MEM® (Life Technologies). Cells were then seeded into assay plates with serially diluted test compounds in 0.3% DMSO at density of a 5000 cells/well. Cells were then incubated for 4 h at 37° C. in a cell culture incubator supplement with 5% CO2. Test plates were equilibrated to room temperate for 30 min before addition of 30 μL Steady-Glo® Luciferase assay reagent (Promega, Madison, Wis.) into each test well. Luminescence was determined using an EnVision® Multilabel plate reader 25 min after the addition of detection reagent. IC50 values were then calculated with Xlfit using a logistical 4-parameter fit model in GraphPad Prism (GraphPad Software, San Diego, Calif.) or in Genedata Screener® (Genedata, Basel, Switzerland).

OPM-2 = experiment: Cell viability assay (OPM-2 10 FBS, CellTiter-Glo); assay type: cell-based, human; conditions: OPM-2 cells
Description: Cell Viability Assay (OPM-2 10 FBS)
Cells were seeded into 384-well plates at 3000 cells/well density in complete growth medium containing 10% FBS, and incubated for 16 h with serially diluted test compounds in a 37° C. incubator with 5% CO2. Cell viability was tested using CellTiter-Glo® assay (Promega, Madison, Wis.) according to the manufacturer recommendations. Luminescence was determined using an EnVision® Multilabel plate reader 25 min after the addition of detection reagent. IC50 values were then calculated with Xlfit using a logistical 4-parameter fit model in GraphPad Prism (GraphPad Software, San Diego, Calif.) or in Genedata Screener® (Genedata, Basel, Switzerland).

T1 sequence (Q07820 171-327): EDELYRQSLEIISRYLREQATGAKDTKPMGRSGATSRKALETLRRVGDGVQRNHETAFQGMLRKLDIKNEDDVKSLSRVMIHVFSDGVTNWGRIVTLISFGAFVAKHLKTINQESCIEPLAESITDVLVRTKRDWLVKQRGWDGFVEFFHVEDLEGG

Compound | IC50 (recombinant human Mcl-1) [µM] | IC50 [1] [µM] | IC50 (OPM-2; 16 h) [µM] | IC50 (OPM-2; Homo sapiens, OPM-2, 16 h) [µM] | IC50 (OPM-2; Homo sapiens, 16 h) [µM]
CO[C@H]1/C=C/C[C@H](C)CS(=O)(=O)NC(=O)c2ccc3c(c2)N(C[C@@H]2CC[C@H]21)C[C@@]1(CCCc2cc(Cl)ccc21)CO3 (single isomer, unassigned) [Example 31] | 0.0058 | 0.543 | 3.56 | – | –
COCCO[C@H]1/C=C/C[C@H](C)CS(=O)(=O)NC(=O)c2ccc3c(c2)N(C[C@@H]2CC[C@H]21)C[C@@]1(CCCc2cc(Cl)ccc21)CO3 (single isomer, unassigned) [Example 78] | 0.00267 | 0.42 | 2.74 | – | –
COCCO[C@H]1/C=C/C[C@@H](C)CS(=O)(=O)NC(=O)c2ccc3c(c2)N(C[C@@H]2CC[C@H]21)C[C@@]1(CCCc2cc(Cl)ccc21)CO3 (single isomer, unassigned) [Example 77] | 0.00613 | 0.26 | 3.16 | – | –
CO[C@H]1/C=C/CCCS(=O)(=O)NC(=O)c2ccc3c(c2)N(C[C@@H]2CC[C@H]21)C[C@@]1(CCCc2cc(Cl)ccc21)CO3 [Example 9, (1S,3′R,6′R,7′S,8′E)-6-Chloro-7′-Methoxy-3,4-Dihydro-2H,15′H-Spiro[Naphthalene-1,22′-[20]Oxa[13]Thia[1,14]Diazatetracyclo[14.7.2.0^3,6.0^19,24]Pentacos A[8,16,18,24]Tetraen]-15′-One 13′,13′-Dioxide] | 0.00124 | 0.127 | – | 1.2 | –
CC[C@H]1CCCC[C@H](O)[C@@H]2CC[C@H]2CN2C[C@@]3(CCCc4cc(Cl)ccc43)COc3ccc(cc32)C(=O)NS1(=O)=O [Example 23, (1S,3′R,6′R,7′S,12′S)-6-Chloro-12′-Ethyl-7′-Hydroxy-3,4-Dihydro-2H,15′H-Spiro[Naphthalene-1,22′-[20]Oxa[13]Thia[1,14]Diazatetracyclo[14.7.2.0^3,6.0^19,24]Pentacos A[16,18,24]Trien]-15′-One 13′,13′-Dioxide] | 0.00368 | 0.372 | – | – | –
CC1(C)CC/C=C/[C@H](O)[C@@H]2CC[C@H]2CN2C[C@@]3(CCCc4cc(Cl)ccc43)COc3ccc(cc32)C(=O)NS1(=O)=O (single isomer, unassigned) [Example 40] | 0.00768 | 0.297 | – | 7.29 | –
CC[C@@H]1CC/C=C/[C@H](O)[C@@H]2CC[C@H]2CN2C[C@@]3(CCCc4cc(Cl)ccc43)COc3ccc(cc32)C(=O)NS1(=O)=O (single isomer, unassigned) [Example 17] | – | – | – | 0.26 | –
C[C@H]1CCC[C@H](O)[C@@H]2CC[C@H]2CN2C[C@@]3(CCCc4cc(Cl)ccc43)COc3ccc(cc32)C(=O)NS(=O)(=O)C1 (single isomer, unassigned) [Example 38] | – | 1.04 | – | – | –
COCCO[C@H]1/C=C/C[C@H](C)[C@@H](C)S(=O)(=O)NC(=O)c2ccc3c(c2)N(C[C@@H]2CC[C@H]21)C[C@@]1(CCCc2cc(Cl)ccc21)CO3 [Example 74, (1S,3′R,6′R,7′S,8′E,11′S,12′R)-6-Chloro-7′-(2-Methoxyethoxy)-11′,12′-Dimethyl-3,4-Dihydro-2H,15′H-Spiro[Naphthalene-1,22′-[20]Oxa[13]Thia[1,14]Diazatetracyclo[14.7.2.0^3,6.0^19,24]Pentacosa[8,16,18,24]Tetraen]-15′-One-13′, 13′-Dioxide] | 0.00222 | 0.273 | – | 1.74 | –
CC[C@@H]1CC/C=C\[C@H](O)[C@@H]2CC[C@H]2CN2C[C@@]3(CCCc4cc(Cl)ccc43)COc3ccc(cc32)C(=O)NS1(=O)=O (single isomer, unassigned) [Example 18] | – | – | – | 0.694 | –
CC1(C)CCCC[C@H](O)[C@@H]2CC[C@H]2CN2C[C@@]3(CCCc4cc(Cl)ccc43)COc3ccc(cc32)C(=O)NS1(=O)=O [Example 42] | 0.00755 | 0.85 | – | – | –
CC[C@H]1CC/C=C/[C@H](O)[C@@H]2CC[C@H]2CN2C[C@@]3(CCCc4cc(Cl)ccc43)COc3ccc(cc32)C(=O)NS1(=O)=O (single isomer, unassigned) [Example 19] | – | – | – | 3.99 | –
CO[C@H]1/C=C/C[C@H](C)[C@@H](C)S(=O)(=O)NC(=O)c2ccc3c(c2)N(C[C@@H]2CC[C@H]21)C[C@@]1(CCCc2cc(Cl)ccc21)CO3 [Example 4, (1S,3′R,6′R,7′S,8′E,11′S,12′R)-6-Chloro-7′-Methoxy-11′,12′-Dimethyl-3,4-Dihydro-2H,15′H-Spiro[Naphthalene-1,22′-[20]Oxa[13]Thia[1,14]Diazatetracyclo[14.7.2.0^3,6.0^19,24]Pentacos A[8,16,18,24]Tetraen]-15′-One-13′, 13′-Dioxide] | – | – | – | – | 0.236
C[C@@H]1CCC[C@H](O)[C@@H]2CC[C@H]2CN2C[C@@]3(CCCc4cc(Cl)ccc43)COc3ccc(cc32)C(=O)NS(=O)(=O)C1 (single isomer, unassigned) [Example 39] | 0.0107 | – | – | – | –
CO[C@H]1/C=C\C[C@H](C)[C@@H](C)S(=O)(=O)NC(=O)c2ccc3c(c2)N(C[C@@H]2CC[C@H]21)C[C@@]1(CCCc2cc(Cl)ccc21)CO3 [Example 5, (1S,3′R,6′R,7′S,8′Z,11′S,12′R)-6-Chloro-7′-Methoxy-11′,12′-Dimethyl-3,4-Dihydro-2H,15′H-Spiro[Naphthalene-1,22′-[20]Oxa[13]Thia[1,14]Diazatetracyclo[14.7.2.0^3,6.0^19,24]Pentacos A[8,16,18,24]Tetraen]-15′-One 13′,13′-Dioxide] | – | – | – | 1.14 | –

Continued, in another order:

IC50 (recombinant human Mcl-1) [µM] | IC50 [1] [µM] | Compound | IC50 (OPM-2; 16 h) [µM] | IC50 (OPM-2; Homo sapiens, OPM-2, 16 h) [µM] | IC50 (OPM-2; Homo sapiens, 16 h) [µM]
0.000297 | 0.0215 | C[C@H]1C/C=C/[C@H](O)[C@@H]2CC[C@H]2CN2C[C@@]3(CCCc4cc(Cl)ccc43)COc3ccc(cc32)C(=O)NS(=O)(=O)[C@@H]1C1CC1 (single isomer, unassigned) [Example 44] | 0.208 | – | –
0.0053 | 0.376 | CC(C)C[C@@H]1[C@@H](C)C/C=C/[C@H](O)[C@@H]2CC[C@H]2CN2C[C@@]3(CCCc4cc(Cl)ccc43)COc3ccc(cc32)C(=O)NS1(=O)=O (single isomer, unassigned) [Example 65] | 3.28 | – | –
0.000249 | 0.06 | C[C@H]1C/C=C/[C@H](O)[C@@H]2CC[C@H]2CN2C[C@@]3(CCCc4cc(Cl)ccc43)COc3ccc(cc32)C(=O)NS(=O)(=O)[C@@H]1C1CC1 (single isomer, unassigned) [Example 47] | 0.284 | – | –
0.00389 | 0.477 | CO[C@H]1/C=C/C[C@H](C)[C@@H](C2CC2)S(=O)(=O)NC(=O)c2ccc3c(c2)N(C[C@@H]2CC[C@H]21)C[C@@]1(CCCc2cc(Cl)ccc21)CO3 [Example 48, (1S,3′R,6′R,7′S,8′E,11′S,12′S)-6-Chloro-12′-Cyclopropyl-7′-Methoxy-11′-Methyl-3,4-Dihydro-2H,15′H-Spiro [Naphthalene-1,22′-[20]Oxa[13]Thia[1,14]Diazatetracyclo[14.7.2.0^3,6.0^19,24]Pentacosa[8,16,18,24]Tetraen]-15′-One 13′,13′-Dioxide] | – | 5.58 | –
0.0445 | 1.5 | C[C@@H]1CCC[C@H](O)[C@@H]2CC[C@H]2CN2C[C@@]3(CCCc4cc(Cl)ccc43)COc3ccc(cc32)C(=O)NS(=O)(=O)[C@H]1C (single isomer, unassigned) [Example 36] | – | – | –
0.000437 | 0.0377 | CC[C@H]1C/C=C/[C@H](O)[C@@H]2CC[C@H]2CN2C[C@@]3(CCCc4cc(Cl)ccc43)COc3ccc(cc32)C(=O)NS(=O)(=O)C1 (single isomer, unassigned) [Example 34] | – | 0.253 | –
0.000423 | 0.0307 | C[C@@H]1C/C=C/[C@H](O)[C@@H]2CC[C@H]2CN2C[C@@]3(CCCc4cc(Cl)ccc43)COc3ccc(cc32)C(=O)NS(=O)(=O)[C@H]1CC1CCC1 (single isomer, unassigned) [Example 63] | 0.183 | – | –
– | 0.667 | C[C@H]1CCC[C@H](O)[C@@H]2CC[C@H]2CN2C[C@@]3(CCCc4cc(Cl)ccc43)COc3ccc(cc32)C(=O)NS(=O)(=O)[C@H]1C [Example 37, (1S,3′R,6′R,7′S,11′S,12′S)-6-Chloro-7′-Hydroxy-11,12′-Dimethyl-3,4-Dihydro-2H,15′H-Spiro[Naphthalene-1,22′-[20]Oxa[13]Thia[1,14]Diazatetracyclo[14.7.2.0^3,6.0^19,24]Pentacos A[16,18,24]Trien]-15′-One 13′,13′-Dioxide] | – | 5.74 | –
